By MIC is commonly meant the smallest concentration in the dilution series that meets the test's criterion for growth inhibition. Lower therefore signals a more susceptible organism. In general, LD50 refers to the dose expected to kill half of the subjects tested.

Each structure is given as a SMILES string. ≈ marks a conversion by molar mass, not a printed value. Like-named read-outs stand apart in the source and are kept apart here.

The text below walks through data of patent US4261978A, “Treatment and prophylaxis of swine dysentery” (Takeda Chemical Industries, Ltd., priority 1978, dated 1981).

Data set [1] deals with Treponema hyodysenteriae. Nature of the data set: Minimum inhibitory concentration against Treponema hyodysenteriae (agar dilution). It is filed as cell-based. As to conditions: 10^6 CFU/ml. loopful, 37° C., 2 days; for MIC: Brachyspira hyodysenteriae, 48 h. On the procedure: (1)Strains: These strains belong to Treponema hyodysenteriae isolated fro
the bloody mucous faeces of dysenteric pigs; MK 1, MK 2 and MK 4 were
obtained in Kyushu District of Japan while OX 1 was obtained in Okinawa,
(2)Antimicrobial potency assay: Agar Dilution Method
(3) Inoculum size: a loopful of 10^6 CFU/ml.
(4)Cultural conditions: Gas Pak (BBL) method, 37° C., 2 days
A general note: Agar dilution tests growth on a series of plates holding different concentrations.

A short description of data set [2]: Acute oral toxicity (LD50). It counts as in vivo, mouse. The settings on record: for LD50: mouse, oral. An excerpt: (C) Carriomycin is extremely low in toxicity to animals.
The subject of data set [3] is Treponema hyodysenteriae. Nature of the data set: Therapeutic efficacy of medicated feed in pigs experimentally infected with swine dysentery. It is filed as in vivo, pigs (SPF LW). As for the experimental part: A premix containing 10% of carriomycin monosodium salt crystals as diluted with finely milled soybean meal was added to a feedstuff and pigs were allowed to take the feed as libitum. The feed was the proprietary pig starter mentioned in Example 2 without added antibiotics. The pigs were SPF LW and used in groups of 4 animals (2 male and 2 female.)
The pigs were infected as follows. Thus, Treponema hyodysenteriae was anaerobically grown on a 5% horse blood agar plate and the resultant culture was homogenized and admixed with 3% mucin-phosphate buffer. The mixture was directly administered into the stomach of each SPF pig. From each of the pigs showing typical symptoms of swine dysentery, the colon content and mucous membrane were taken and diluted two-fold with 3% mucin-phosphate buffer to obtain a final infective material. An 80 ml. portion of this preparation was directly infused into the stomach of each test pig, which was then put on the unmedicated feed for the initial six days. Beginning with the 7th day, each pig was put on the feed medicated with one of predetermined concentrations of the test drug and was reared for a total of 28 days. Tests were performed for three groups of animals dosed with 0 ppm. 15 ppm. and 150 ppm., respectively, of carriomycin.

Data set [4] in a line: Absorption from the digestive tract and residue in the animal body. As to conditions: in words.

As for `CCC(C(=O)C(C)C(O)C(C)CCc1ccc(C)c(O)c1C(=O)O)C1OC(CC)(C2CCC(O)(CC)C(C)O2)CC1C` (stereo not drawn) [Lasalocid A], the MIC in the data set with Treponema hyodysenteriae [1] (strain MK 1), in the data set with Treponema hyodysenteriae [1] (strain MK 2), in the data set on Treponema hyodysenteriae [1] (strain MK 4) and in the data set on Treponema hyodysenteriae [1] (strain OX 1) was 10 µg/mL (≈ 16.9 µM) in each case. Also, the LD50 in data set [2] (in vivo, read-out: LD50) worked out at 146 mg/kg.
`COC1CCC(OC2C(C)C(CC3CC(OC)C(C)C4(O3)OC(C)(C3CCC(C5CCC(C6OC(C)(O)C(C)CC6C)O5)O3)C(OC)C4C)OC(O)(C(C)C(=O)O)C2C)OC1C` (stereo not drawn) [Carriomycin, carriomycin]: the “Minimum inhibitory concentration (MIC)” value in the data set with Treponema hyodysenteriae [1] (strain MK 1) amounted to 0.1 µg/mL (≈ 0.113 µM). Besides, the “Minimum inhibitory concentration (MIC)” value in the data set on Treponema hyodysenteriae [1] (strain MK 2) worked out at 0.1 µg/mL (≈ 0.113 µM). Moreover, the “Minimum inhibitory concentration (MIC)” value in the data set on Treponema hyodysenteriae [1] (strain MK 4) stood at 0.1 µg/mL (≈ 0.113 µM). The “Minimum inhibitory concentration (MIC)” value in the data set with Treponema hyodysenteriae [1] (strain OX 1) is 0.1 µg/mL (≈ 0.113 µM). Further, the toxicity to animals result in data set [2] (in words) is “extremely low”. Further, the LD50 result in data set [2] is “about 2,000 mg./kg”. In addition, in the data set on Treponema hyodysenteriae [3] (group B, 15 ppm. in feed), the “Mean body weight at end of test” value is 29.1 kg./head, the “Mean feed conversion ratio” value came to 2.5, the Mean feed intake stood at 36.5 kg./head and the “Mean number of days with bloody mucous faeces” value is listed as 0.5 days/head. Besides, in the data set with Treponema hyodysenteriae [3] (group B, 15 ppm. in feed), the “Mean number of days with diarrhea” value came out at 3.0 days/head and the Mean weight gain is 14.6 kg./head. Besides, in the data set with Treponema hyodysenteriae [3] (group C, 150 ppm. in feed), the “Mean body weight at end of test” value came out at 31.7 kg./head, the “Mean feed conversion ratio” value was found to be 2.3, the Mean feed intake amounted to 37.3 kg./head and the “Mean number of days with bloody mucous faeces” value was found to be 0.1 days/head. In the data set with Treponema hyodysenteriae [3] (group C, 150 ppm. in feed), the “Mean number of days with diarrhea” value was 1.5 days/head and the Mean weight gain worked out at 16.2 kg./head. Besides, in the data set on Treponema hyodysenteriae [3] (in words, from Table 2), the body weight gain entry is given as “considerable increases”; the “feed conversion ratio, number of days with diarrhea and number of days with bloody mucous faeces” value is on record as “considerable improvements”. In addition, in data set [4], the “absorption from the digestive tract” value is reported as “sparingly absorbed” and the “residue in the animal body” value is “substantially no residue”.
Take `CC[C@@H](C(=O)[C@@H](C)[C@@H](O)[C@H](C)[C@@H]1O[C@@H]([C@@H](CC)C(=O)O)CC[C@@H]1C)[C@H]1O[C@]2(C=C[C@@H](O)[C@]3(CC[C@@](C)([C@H]4CC[C@](O)(CC)[C@H](C)O4)O3)O2)[C@H](C)C[C@@H]1C` [Salinomycin, salinomycin]: the minimum inhibitory concentration (MIC) in the data set with Treponema hyodysenteriae [1] (strain MK 1) turned out to be 1 µg/mL (≈ 1.33 µM); against Treponema hyodysenteriae [1] (strain MK 2) it was 1 µg/mL (≈ 1.33 µM); against Treponema hyodysenteriae [1] (strain MK 4), 0.1 µg/mL (≈ 0.133 µM); against Treponema hyodysenteriae [1] (strain OX 1) it was 1 µg/mL (≈ 1.33 µM). Besides, in data set [2] (in vivo, read-out: LD50), the LD50 worked out at 50 mg/kg.
With `CC[C@@]1([C@@H]2O[C@@H]([C@H]3O[C@@](O)(CO)[C@H](C)C[C@@H]3C)C[C@@H]2C)CC[C@H]([C@]2(C)CC[C@]3(C[C@H](O)[C@@H](C)[C@@H]([C@@H](C)[C@@H](OC)[C@H](C)C(=O)O)O3)O2)O1` [Monensin], the minimal inhibitory concentration (MIC) against Treponema hyodysenteriae [1] (strain MK 1), against Treponema hyodysenteriae [1] (strain MK 2), in the data set on Treponema hyodysenteriae [1] (strain MK 4) and in the data set on Treponema hyodysenteriae [1] (strain OX 1) was 1 µg/mL (≈ 1.49 µM) in each case.
